How the values were obtained:
Test in all cases: Hollow fiber in vivo tumor cell cultivation model in athymic nude mice
Parameters in all cases: species or system human
[1] = system: 1A9 ovarian carcinoma
Source text: (§1) Utilizing this model, one can measure the ability of test compounds to inhibit the growth of human tumor cells in hollow fibers growing subcutaneously (s.c.) in athymic nude mice. The histologic tumor types employed were MIP 101 colon carcinoma, HCT-116 colon carcinoma, 1A9PTX22 ovarian carcinoma, and 1A9 ovarian carcinoma.
(§2) The HCT 116 human colon tumor cell line was obtained from the American Type Culture Collection, Rockville, Md. The MIP 101 human colon tumor cell line was obtained from Dr. Robert Kramer (Bristol Meyers Squibb) and was previously described (Niles R M, Wilhelm S A, Steele G D JR, Burke B, Christensen T, Dexter D, O'Brien M J, Thomas P, Zamcheck N. Isolation and characterization of an undifferentiated human colon carcinoma cell line (MIP-101). Cancer Invest. 1987;5(6):545-52.). The 1A9 and the 1A9PTX22 ovarian tumor cell lines were obtained from Dr. Toto Fojo, Medicine Branch, Division of Clinical Sciences, National Cancer Institute, National Institutes of Health, Bethesda, Md. 20892. The 1A9 is a clone of the ovarian carcinoma cell line, A2780 (Balachandran R, ter Haar E, Welsh M J, Grant S G, Day B W. The potent microtubule-stabilizing agent (+)-discodermolide induces apoptosis in human breast carcinoma cells-preliminary comparisons to paclitaxel. Anti-Cancer Drugs 1998; 9:67-76. [Errata: Anti-Cancer Drugs 1998: 9:369-370]). The 1A9PTX22 subline was isolated as an individual clone from the 1A9 cell line in a single step selection by exposure to 5 ng/mL paclitaxel in the presence of 5 μg/mL of verapamil. […] Resistance to paclitaxel was maintained after two years of culturing in drug-free media, and was attributed to the Ala^364→Thr mutation in β-tubulin that was found in the 1A9PTX22 cell line. All cell lines were propagated and expanded in RPMI 1640 medium containing 10% heat-inactivated FBS (Life Technologies, Grand Island, N.Y.) in a tissue culture incubator (37° C., controlled, humidified atmosphere containing 5% CO2). Cell expansions were performed in T75 tissue culture flasks (Costar®, Corning, N.Y.). For hollow fiber preparations, cells were harvested at 70-90% confluency using 0.25% Trypsin-EDTA (Life Technologies, Grand Island, N.Y.).
(§3) PVDF hollow fibers (Spectrum, Gardena, Calif.) were soaked in 70% EtOH for 72 hours before use. After this step, all handling of fibers was done under a biological laminar flow hood using aseptic procedures. Individual fibers were flushed with 3 mL of ice-cold tissue culture media using a syringe equipped with a 20-gauge needle. Next, each fiber was filled with an appropriate cell suspension (1×10^6 cells/mL for the 1A9 and 1A9PTX22 cells, and 0.3×10^6 cells/mL for the HCT 116 and MIP 101 cells), and both ends of the fiber were sealed with a hot flat needle holder. The entire length of the fiber was then sealed into 1.5 cm microcapsules (further called “hollow fibers”), each containing approximately 15 μL of the appropriate cell suspension. After separation, individual hollow fibers were placed in 6 well plates (6 fibers in 5 mL media per well), and were incubated overnight at 37° C. in the tissue culture incubator.
(§4) Outbred athymic (nu/nu) female mice (“Chrls:Athymic Nude-nu”, Charles River Laboratories, Wilmington, Mass.) were anesthetized with ip injections of Ketamine/Xylazine (150 mg/kg, and 12 mg/kg body weight, respectively). For the subcutaneous implantation an 11-gauge trocar containing one or two hollow fibers was inserted through an incision made with scissors at the nape of the neck of an animal, and fibers were released by retracting the trocar while depressing the plunger. This procedure was repeated until all four hollow fibers were implanted. One wound clip was used to close the skin incision. After the surgery each animal received a single, subcutaneous injection of 0.4 mg/kg butorphenol to relieve any potential pain. Animals recovered from the anesthesia on a heating pad, before returning to their cages. […]

[2] = system: 1A9PTX22 ovarian carcinoma; details: for Experiment #1 % T/C ± SEM / Experiment #2 % T/C ± SEM: 1A9PTX22 hollow fibers s.c., day 7, Paclitaxel 15 mg/kg i.v. daily for 5 days, Ex. 1 45 mg/kg i.v. once; for Average % T/C: 1A9PTX22 hollow fibers, average of experiments #1 and #2
Source text: as §1, §2, §3, §4

[3] = system: HCT-116 colon carcinoma; details: for Experiment #1 % T/C ± SEM / Experiment #2 % T/C ± SEM: HCT 116 hollow fibers s.c., day 7, Paclitaxel 15 mg/kg i.v. daily for 5 days, Ex. 1 45 mg/kg i.v. once; for Average % T/C: HCT 116 hollow fibers, average of experiments #1 and #2
Source text: as §1, §2, §3, §4

[4] = system: MIP 101 colon carcinoma; details: for Experiment #1 % T/C ± SEM / Experiment #2 % T/C ± SEM: MIP 101 hollow fibers s.c., day 7, Paclitaxel 15 mg/kg i.v. daily for 5 days, Ex. 1 45 mg/kg i.v. once; for Average % T/C: MIP 101 hollow fibers, average of experiments #1 and #2
Source text: as §1, §2, §3, §4

[5] = 1A9 hollow fibers s.c., day 7, Paclitaxel 15 mg/kg i.v. daily for 5 days, Ex. 1 45 mg/kg i.v. once
[6] = 1A9 hollow fibers, average of experiments #1 and #2

SMILES	Experiment #2 % T/C ± SEM ([1]; 1A9 hollow fibers s.c., day 7, Ex. 1 45 mg/kg i.v. once)	Experiment #1 % T/C ± SEM [1, 5]	Average % T/C [1, 6]	Experiment #1 % T/C ± SEM [2]	Experiment #2 % T/C ± SEM [2]	Average % T/C [2]	Experiment #1 % T/C ± SEM [3]	Experiment #2 % T/C ± SEM [3]	Average % T/C [3]	Experiment #1 % T/C ± SEM [4]	Experiment #2 % T/C ± SEM [4]	Average % T/C [4]	Experiment #2 regression (Reg.) ([1]; 1A9 hollow fibers s.c., day 7, Paclitaxel 15 mg/kg i.v. daily for 5 days, regression = (1−Mean T/Mean T0)×100%)	Average regression (Reg.) [1, 6]
C=C/C=C\[C@H](C)[C@H](OC(N)=O)[C@@H](C)[C@@H](O)[C@@H](C)C/C(C)=C\[C@H](C)[C@@H](O)[C@@H](C)/C=C\[C@@H](O)C[C@H](O)[C@H](C)[C@H](O)[C@@H](C)C(=O)[O-].[Na+] [Ex. 1, (2R,3S,4S,5S,7S,8Z,10S,11S,12S,13Z,16S,17S,18S,19S,20S,21Z)-19-[(aminocarbonyl)oxy]-3,5,7,11,17-pentahydroxy-2,4,10,12,14,16,18,20-octamethyl-8,13,21,23-tetracosatetraenoic acid, sodium salt]	23 ± 8 %	14 ± 4 %	19%	6 ± 2 %	16 ± 7 %	11%	15 ± 4 %	10 ± 3 %	13%	50 ± 9 %	90 ± 9%	70%	–	–
CC(=O)O[C@H]1C(=O)[C@@]2(C)[C@H]([C@H](OC(=O)c3ccccc3)[C@]3(O)C[C@H](OC(=O)[C@H](O)[C@@H](NC(=O)c4ccccc4)c4ccccc4)C(C)=C1C3(C)C)[C@]1(OC(C)=O)CO[C@@H]1C[C@@H]2O [paclitaxel]	–	1 ± 3 %	–	109 ± 16%	84 ± 8%	97%	2 ± 1 %	1 ± 2 %	1%	113 ± 10%	112 ± 11%	113%	53% Reg.**	26% Reg.

From patent publication US6734177B2, “Certain salts of discodermolide acid, pharmaceutical compositions containing them and their use in treating tumors” (Novartis AG, priority 2001, dated 2004)
